Test results: ChEMBL document CHEMBL4828717, “Synthetic cajaninstilbene acid derivatives eradicate methicillin-resistant Staphylococcus aureus persisters and biofilms” (Eur J Med Chem, 2021)

Assays:
Staphylococcus aureus [1] = assay: Antibacterial activity against methicillin resistant Staphylococcus aureus ATCC 62202 assessed as reduction in microbial growth after 16 to 18 hrs by microbroth dilution method; assay type: functional; conditions: time 16-18 hrs
Staphylococcus aureus [2] = assay: Antibacterial activity against methicillin resistant Staphylococcus aureus ATCC513045 assessed as reduction in microbial growth after 16 to 18 hrs by microbroth dilution method; assay type: functional; conditions: time 16-18 hrs
Staphylococcus aureus [3] = assay: Antibacterial activity against methicillin resistant Staphylococcus aureus ATCC 43300 assessed as reduction in microbial growth after 16 to 18 hrs by microbroth dilution method; assay type: functional; conditions: time 16-18 hrs
Staphylococcus aureus [4] = assay: Antibacterial activity against methicillin resistant Staphylococcus aureus ATCC49025 assessed as reduction in microbial growth after 16 to 18 hrs by microbroth dilution method; assay type: functional; conditions: time 16-18 hrs
Staphylococcus aureus [5] = assay: Antibacterial activity against methicillin resistant Staphylococcus aureus ATCC48966 assessed as reduction in microbial growth after 16 to 18 hrs by microbroth dilution method; assay type: functional; conditions: time 16-18 hrs
Pseudomonas aeruginosa = assay: Antibacterial activity against Pseudomonas aeruginosa ATCC27853 assessed as reduction in microbial growth after 16 to 18 hrs by microbroth dilution method; assay type: functional; conditions: time 16-18 hrs
RAW264.7 = assay: Cytotoxicity against mouse RAW264.7 cells assessed as cell viability at 10 ug/ml measured after 24 hrs by MTT assay; assay type: cell-based; conditions: raw264.7, 24 h, dose 10 µg/ml
Staphylococcus aureus [6] = assay: Antibacterial activity against methicillin resistant Staphylococcus aureus ATCC 52056 assessed as reduction in microbial growth after 16 to 18 hrs by microbroth dilution method; assay type: functional; conditions: time 16-18 hrs
L02 = assay: Cytotoxicity against human L02 cells assessed as cell viability at 10 ug/ml measured after 24 hrs by MTT assay; assay type: cell-based; conditions: l02, 24 h, dose 10 µg/ml
Escherichia coli = assay: Antibacterial activity against Escherichia coli ATCC25922 assessed as reduction in microbial growth after 16 to 18 hrs by microbroth dilution method; assay type: functional; conditions: ATCC 25922, time 16-18 hrs
Staphylococcus aureus [7] = assay: Antibacterial activity against methicillin resistant Staphylococcus aureus ATCC48073 assessed as reduction in microbial growth after 16 to 18 hrs by microbroth dilution method; assay type: functional; conditions: time 16-18 hrs
Staphylococcus aureus [8] = assay: Antibacterial activity against Staphylococcus aureus ATCC 25923 assessed as reduction in microbial growth after 16 to 18 hrs by microbroth dilution method; assay type: functional; conditions: time 16-18 hrs
Staphylococcus aureus [9] = assay: Antibacterial activity against methicillin resistant Staphylococcus aureus ATCC48706 assessed as reduction in microbial growth after 16 to 18 hrs by microbroth dilution method; assay type: functional; conditions: time 16-18 hrs
Staphylococcus aureus [10] = assay: Antibacterial activity against methicillin resistant Staphylococcus aureus ATCC515992 assessed as reduction in microbial growth after 16 to 18 hrs by microbroth dilution method; assay type: functional; conditions: time 16-18 hrs
Staphylococcus aureus [11] = assay: Antibacterial activity against methicillin resistant Staphylococcus aureus ATCC49008 assessed as reduction in microbial growth after 16 to 18 hrs by microbroth dilution method; assay type: functional; conditions: time 16-18 hrs
Enterococcus faecalis = assay: Antibacterial activity against Enterococcus faecalis ATCC29212 assessed as reduction in microbial growth after 16 to 18 hrs by microbroth dilution method; assay type: functional; conditions: ATCC 29212, time 16-18 hrs
Staphylococcus aureus [12] = assay: Antibacterial activity against methicillin resistant Staphylococcus aureus ATCC49800 assessed as reduction in microbial growth after 16 to 18 hrs by microbroth dilution method; assay type: functional; conditions: time 16-18 hrs

CC(C)=CCc1c(OCCCC(F)(F)F)cc(/C=C/c2ccc(F)cc2)c(C(=O)O)c1O
MIC (Staphylococcus aureus [1]): 4 µg/mL | MIC (Staphylococcus aureus [2]): 4 µg/mL | MIC (Staphylococcus aureus [3]): 4 µg/mL | MIC (Staphylococcus aureus [4]): 4 µg/mL | MIC (Staphylococcus aureus [5]): 4 µg/mL | MIC (Pseudomonas aeruginosa): > 32 µg/mL | Activity (RAW264.7): Toxic | MIC (Staphylococcus aureus [6]): 4 µg/mL | Activity (L02): Toxic | MIC (Escherichia coli): > 32 µg/mL | MIC (Staphylococcus aureus [7]): 4 µg/mL | MIC (Staphylococcus aureus [8]): 4 µg/mL | MIC (Staphylococcus aureus [9]): 4 µg/mL | MIC (Staphylococcus aureus [10]): 4 µg/mL | MIC (Staphylococcus aureus [11]): 4 µg/mL | MIC (Enterococcus faecalis): > 32 µg/mL | MIC (Staphylococcus aureus [12]): 4 µg/mL

CC(C)=CCc1c(OCC(F)(F)F)cc(/C=C/c2ccc(C(F)(F)F)cc2)c(C(=O)O)c1O
MIC (Staphylococcus aureus [1]): 2 µg/mL | MIC (Staphylococcus aureus [2]): 2 µg/mL | MIC (Staphylococcus aureus [3]): 2 µg/mL | MIC (Staphylococcus aureus [4]): 2 µg/mL | MIC (Staphylococcus aureus [5]): 2 µg/mL | MIC (Pseudomonas aeruginosa): > 32 µg/mL | Activity (RAW264.7): Toxic | MIC (Staphylococcus aureus [6]): 2 µg/mL | Activity (L02): Toxic | MIC (Escherichia coli): > 32 µg/mL | MIC (Staphylococcus aureus [7]): 2 µg/mL | MIC (Staphylococcus aureus [8]): 2 µg/mL | MIC (Staphylococcus aureus [9]): 2 µg/mL | MIC (Staphylococcus aureus [10]): 2 µg/mL | MIC (Staphylococcus aureus [11]): 2 µg/mL | MIC (Enterococcus faecalis): > 32 µg/mL | MIC (Staphylococcus aureus [12]): 2 µg/mL

CC(C)=CCc1c(OCCF)cc(/C=C/c2ccc(C(F)(F)F)cc2)c(C(=O)O)c1O
MIC (Staphylococcus aureus [1]): 4 µg/mL | MIC (Staphylococcus aureus [2]): 4 µg/mL | MIC (Staphylococcus aureus [3]): 2 µg/mL | MIC (Staphylococcus aureus [4]): 8 µg/mL | MIC (Staphylococcus aureus [5]): 8 µg/mL | MIC (Pseudomonas aeruginosa): > 32 µg/mL | Activity (RAW264.7): Toxic | MIC (Staphylococcus aureus [6]): 2 µg/mL | Activity (L02): Toxic | MIC (Escherichia coli): > 32 µg/mL | MIC (Staphylococcus aureus [7]): 8 µg/mL | MIC (Staphylococcus aureus [8]): 4 µg/mL | MIC (Staphylococcus aureus [9]): 8 µg/mL | MIC (Staphylococcus aureus [10]): 4 µg/mL | MIC (Staphylococcus aureus [11]): 8 µg/mL | MIC (Enterococcus faecalis): > 32 µg/mL | MIC (Staphylococcus aureus [12]): 8 µg/mL

CC1(C)S[C@@H]2[C@H](NC(=O)[C@H](N)c3ccccc3)C(=O)N2[C@H]1C(=O)O [AMPICILLIN]
MIC (Staphylococcus aureus [1]): > 128 µg/mL | MIC (Staphylococcus aureus [2]): > 128 µg/mL | MIC (Staphylococcus aureus [3]): > 128 µg/mL | MIC (Staphylococcus aureus [4]): > 128 µg/mL | MIC (Staphylococcus aureus [5]): > 128 µg/mL | MIC (Pseudomonas aeruginosa): > 32 µg/mL | MIC (Staphylococcus aureus [6]): > 128 µg/mL | MIC (Escherichia coli): > 32 µg/mL | MIC (Staphylococcus aureus [7]): > 128 µg/mL | MIC (Staphylococcus aureus [8]): 4 µg/mL | MIC (Staphylococcus aureus [9]): > 128 µg/mL | MIC (Staphylococcus aureus [10]): > 128 µg/mL | MIC (Staphylococcus aureus [11]): > 128 µg/mL | MIC (Enterococcus faecalis): > 32 µg/mL | MIC (Staphylococcus aureus [12]): > 128 µg/mL

CCC(C)Oc1cc(/C=C/c2ccc(F)cc2)c(C(=O)O)c(O)c1CC=C(C)C (stereo unspecified)
MIC (Staphylococcus aureus [1]): 2 µg/mL | MIC (Staphylococcus aureus [2]): 2 µg/mL | MIC (Staphylococcus aureus [3]): 2 µg/mL | MIC (Staphylococcus aureus [4]): 4 µg/mL | MIC (Staphylococcus aureus [5]): 4 µg/mL | MIC (Pseudomonas aeruginosa): > 32 µg/mL | Activity (RAW264.7): Toxic | MIC (Staphylococcus aureus [6]): 2 µg/mL | Activity (L02): Toxic | MIC (Escherichia coli): > 32 µg/mL | MIC (Staphylococcus aureus [7]): 4 µg/mL | MIC (Staphylococcus aureus [8]): 2 µg/mL | MIC (Staphylococcus aureus [9]): 4 µg/mL | MIC (Staphylococcus aureus [10]): 4 µg/mL | MIC (Staphylococcus aureus [11]): 4 µg/mL | MIC (Enterococcus faecalis): > 32 µg/mL | MIC (Staphylococcus aureus [12]): 4 µg/mL

COc1cc(/C=C/c2ccccc2)c(C(=O)O)c(O)c1CC=C(C)C
MIC (Staphylococcus aureus [1]): 16 µg/mL | MIC (Staphylococcus aureus [2]): 16 µg/mL | MIC (Staphylococcus aureus [3]): 16 µg/mL | MIC (Staphylococcus aureus [4]): 8 µg/mL | MIC (Staphylococcus aureus [5]): 8 µg/mL | MIC (Pseudomonas aeruginosa): > 32 µg/mL | MIC (Staphylococcus aureus [6]): 16 µg/mL | MIC (Escherichia coli): > 32 µg/mL | MIC (Staphylococcus aureus [7]): 8 µg/mL | MIC (Staphylococcus aureus [8]): 8 µg/mL | MIC (Staphylococcus aureus [9]): 8 µg/mL | MIC (Staphylococcus aureus [10]): 16 µg/mL | MIC (Staphylococcus aureus [11]): 8 µg/mL | MIC (Enterococcus faecalis): > 32 µg/mL | MIC (Staphylococcus aureus [12]): 8 µg/mL

CC(C)=CCc1c(OCCCCF)cc(/C=C/c2ccc(C(F)(F)F)cc2)c(C(=O)O)c1O
MIC (Staphylococcus aureus [1]): 4 µg/mL | MIC (Staphylococcus aureus [2]): 4 µg/mL | MIC (Staphylococcus aureus [3]): 2 µg/mL | MIC (Staphylococcus aureus [4]): 4 µg/mL | MIC (Staphylococcus aureus [5]): 4 µg/mL | MIC (Pseudomonas aeruginosa): > 32 µg/mL | Activity (RAW264.7): Toxic | MIC (Staphylococcus aureus [6]): 2 µg/mL | Activity (L02): Toxic | MIC (Escherichia coli): > 32 µg/mL | MIC (Staphylococcus aureus [7]): 4 µg/mL | MIC (Staphylococcus aureus [8]): 4 µg/mL | MIC (Staphylococcus aureus [9]): 4 µg/mL | MIC (Staphylococcus aureus [10]): 2 µg/mL | MIC (Staphylococcus aureus [11]): 4 µg/mL | MIC (Enterococcus faecalis): > 32 µg/mL | MIC (Staphylococcus aureus [12]): 4 µg/mL

CC(C)=CCc1c(OC2CCC2)cc(/C=C/c2ccc(C(F)(F)F)cc2)c(C(=O)O)c1O
MIC (Staphylococcus aureus [1]): 1 µg/mL | MIC (Staphylococcus aureus [2]): 1 µg/mL | MIC (Staphylococcus aureus [3]): 1 µg/mL | MIC (Staphylococcus aureus [4]): 1 µg/mL | MIC (Staphylococcus aureus [5]): 1 µg/mL | MIC (Pseudomonas aeruginosa): > 32 µg/mL | Activity (RAW264.7): Toxic | MIC (Staphylococcus aureus [6]): 1 µg/mL | Activity (L02): Toxic | MIC (Escherichia coli): > 32 µg/mL | MIC (Staphylococcus aureus [7]): 2 µg/mL | MIC (Staphylococcus aureus [8]): 2 µg/mL | MIC (Staphylococcus aureus [9]): 1 µg/mL | MIC (Staphylococcus aureus [10]): 2 µg/mL | MIC (Staphylococcus aureus [11]): 1 µg/mL | MIC (Enterococcus faecalis): > 32 µg/mL | MIC (Staphylococcus aureus [12]): 2 µg/mL

CC(C)=CCc1c(OCCCF)cc(/C=C/c2ccc(F)cc2)c(C(=O)O)c1O
MIC (Staphylococcus aureus [1]): 4 µg/mL | MIC (Staphylococcus aureus [2]): 4 µg/mL | MIC (Staphylococcus aureus [3]): 4 µg/mL | MIC (Staphylococcus aureus [4]): 4 µg/mL | MIC (Staphylococcus aureus [5]): 4 µg/mL | MIC (Pseudomonas aeruginosa): > 32 µg/mL | Activity (RAW264.7): Toxic | MIC (Staphylococcus aureus [6]): 2 µg/mL | Activity (L02): Toxic | MIC (Escherichia coli): > 32 µg/mL | MIC (Staphylococcus aureus [7]): 4 µg/mL | MIC (Staphylococcus aureus [8]): 4 µg/mL | MIC (Staphylococcus aureus [9]): 4 µg/mL | MIC (Staphylococcus aureus [10]): 4 µg/mL | MIC (Staphylococcus aureus [11]): 4 µg/mL | MIC (Enterococcus faecalis): > 32 µg/mL | MIC (Staphylococcus aureus [12]): 4 µg/mL

CCn1cc(C(=O)O)c(=O)c2cc(F)c(N3CCNCC3)cc21 [NORFLOXACIN]
MIC (Staphylococcus aureus [1]): 2 µg/mL | MIC (Staphylococcus aureus [2]): 32 µg/mL | MIC (Staphylococcus aureus [3]): 32 µg/mL | MIC (Staphylococcus aureus [4]): 1 µg/mL | MIC (Staphylococcus aureus [5]): 1 µg/mL | MIC (Pseudomonas aeruginosa): > 32 µg/mL | MIC (Staphylococcus aureus [6]): 2 µg/mL | MIC (Escherichia coli): > 32 µg/mL | MIC (Staphylococcus aureus [7]): 1 µg/mL | MIC (Staphylococcus aureus [8]): 2 µg/mL | MIC (Staphylococcus aureus [9]): 2 µg/mL | MIC (Staphylococcus aureus [10]): 32 µg/mL | MIC (Staphylococcus aureus [11]): 1 µg/mL | MIC (Enterococcus faecalis): > 32 µg/mL | MIC (Staphylococcus aureus [12]): 1 µg/mL

GENTAMICIN
MIC (Staphylococcus aureus [3]): 16 µg/mL

NC[C@H]1O[C@H](O[C@H]2[C@H](O)[C@@H](O[C@H]3O[C@H](CO)[C@@H](O)[C@H](N)[C@H]3O)[C@H](N)C[C@@H]2N)[C@H](N)[C@@H](O)[C@@H]1O [BEKANAMYCIN]
MIC (Staphylococcus aureus [3]): 128 µg/mL
